Source: patent US12590091B2, “1H-pyrrolo[3,2-C]pyridine and 1H-pyrrolo[2,3-C]pyridine derivatives as TLR9 inhibitors for the treatment of fibrosis” (BRISTOL-MYERS SQUIBB COMPANY, priority 2020, dated 2026)

Key:
human TLR9 = biological target: T1, human TLR9 (Homo sapiens, UniProt Q9NR96); experiment: TLR9 inhibition reporter assay (HEK-Blue cells, SEAP reporter); format: cell-based; settings: HEK-Blue cells overexpressing human TLR9, stimulated with ODN2006 5 nM, 22 hour incubation
T1 construct: host or cells: HEK-Blue cells
T1 sequence (Q9NR96 26-1032): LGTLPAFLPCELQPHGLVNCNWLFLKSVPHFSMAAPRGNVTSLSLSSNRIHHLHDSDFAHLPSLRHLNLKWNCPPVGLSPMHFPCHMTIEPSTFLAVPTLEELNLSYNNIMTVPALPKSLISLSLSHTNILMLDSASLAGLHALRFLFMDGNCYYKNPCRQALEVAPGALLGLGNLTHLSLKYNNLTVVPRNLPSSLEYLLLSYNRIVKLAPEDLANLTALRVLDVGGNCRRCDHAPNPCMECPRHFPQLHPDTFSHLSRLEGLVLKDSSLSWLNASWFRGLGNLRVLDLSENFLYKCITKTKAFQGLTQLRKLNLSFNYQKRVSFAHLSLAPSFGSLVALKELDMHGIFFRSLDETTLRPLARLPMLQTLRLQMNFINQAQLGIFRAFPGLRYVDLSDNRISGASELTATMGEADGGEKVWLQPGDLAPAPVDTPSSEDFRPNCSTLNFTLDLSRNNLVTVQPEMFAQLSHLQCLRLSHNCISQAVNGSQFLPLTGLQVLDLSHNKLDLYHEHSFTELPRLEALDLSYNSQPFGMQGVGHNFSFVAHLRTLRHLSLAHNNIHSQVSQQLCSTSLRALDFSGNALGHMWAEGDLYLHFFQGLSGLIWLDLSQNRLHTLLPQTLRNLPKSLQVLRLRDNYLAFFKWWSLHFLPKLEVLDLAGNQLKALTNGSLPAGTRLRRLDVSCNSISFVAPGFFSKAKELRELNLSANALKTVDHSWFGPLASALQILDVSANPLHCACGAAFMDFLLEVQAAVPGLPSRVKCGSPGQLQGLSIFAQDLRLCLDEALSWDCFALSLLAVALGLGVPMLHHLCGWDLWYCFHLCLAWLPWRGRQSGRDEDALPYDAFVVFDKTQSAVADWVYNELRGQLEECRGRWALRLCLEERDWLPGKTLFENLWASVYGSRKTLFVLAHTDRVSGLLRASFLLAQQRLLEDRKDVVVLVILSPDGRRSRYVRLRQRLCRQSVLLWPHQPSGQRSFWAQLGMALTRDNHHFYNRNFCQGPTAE
Procedure, shortened: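 HEK-Blue cells overexpressing human TLR9 (25,000 cells/well), NF-κB/AP-1-driven SEAP reporter. Compounds at 0.05 nM–50 μM final, 22 h at 37 °C, 5% CO2 with agonist. SEAP detected with HEK-Blue Detection medium; % inhibition versus agonist plus DMSO and known-inhibitor wells.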

human TLR8 = biological target: T2, human TLR8 (Homo sapiens, UniProt Q9NR97); experiment: TLR8 inhibition reporter assay (HEK-Blue cells, SEAP reporter); format: cell-based; settings: HEK-Blue cells overexpressing human TLR8, stimulated with R848 15.9 μM, 22 hour incubation
T2 construct: host or cells: HEK-Blue cells
T2 sequence (Q9NR97 27-1041): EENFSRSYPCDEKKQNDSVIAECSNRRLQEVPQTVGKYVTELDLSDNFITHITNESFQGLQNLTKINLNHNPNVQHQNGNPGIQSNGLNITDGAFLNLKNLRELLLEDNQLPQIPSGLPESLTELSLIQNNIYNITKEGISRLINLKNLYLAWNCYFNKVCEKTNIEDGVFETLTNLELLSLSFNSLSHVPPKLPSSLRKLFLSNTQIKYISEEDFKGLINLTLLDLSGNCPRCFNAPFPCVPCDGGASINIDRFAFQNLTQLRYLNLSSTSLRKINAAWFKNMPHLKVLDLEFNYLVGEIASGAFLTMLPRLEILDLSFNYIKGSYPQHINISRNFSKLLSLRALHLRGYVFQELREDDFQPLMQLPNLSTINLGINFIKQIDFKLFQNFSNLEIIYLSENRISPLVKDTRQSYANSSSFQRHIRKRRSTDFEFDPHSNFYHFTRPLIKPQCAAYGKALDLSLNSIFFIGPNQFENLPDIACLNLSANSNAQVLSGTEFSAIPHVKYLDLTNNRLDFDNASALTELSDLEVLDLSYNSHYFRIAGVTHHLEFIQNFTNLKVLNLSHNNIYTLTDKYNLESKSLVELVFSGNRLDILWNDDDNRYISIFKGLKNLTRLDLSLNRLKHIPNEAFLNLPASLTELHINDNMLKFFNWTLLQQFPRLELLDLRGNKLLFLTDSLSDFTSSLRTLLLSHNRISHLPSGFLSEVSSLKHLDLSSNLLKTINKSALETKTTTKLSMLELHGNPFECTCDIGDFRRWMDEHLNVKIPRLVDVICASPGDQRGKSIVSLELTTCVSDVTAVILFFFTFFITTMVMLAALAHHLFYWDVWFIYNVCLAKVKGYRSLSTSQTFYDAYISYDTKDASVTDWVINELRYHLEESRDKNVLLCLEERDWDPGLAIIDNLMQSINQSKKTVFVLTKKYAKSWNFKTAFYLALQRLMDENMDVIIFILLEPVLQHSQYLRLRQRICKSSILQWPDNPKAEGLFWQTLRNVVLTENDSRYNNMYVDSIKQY
Procedure, shortened: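 Screening used HEK-Blue cells overexpressing one human TLR (7, 8 or 9) and an IFN-β minimal promoter–NF-κB/AP-1 SEAP construct. Stimulation lasted 22 h at 37 °C with receptor-specific agonist: gardiquimod, R848 or ODN2006 at 7.5 μM, 15.9 μM and 5 nM.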

| SMILES | IC50 (human TLR9) [nM] | IC50 (human TLR8) [nM] |
| --- | --- | --- |
| COCCN1C2CCC1CN(c1ccc(-c3cc4c(cc(-c5ccc(S(C)(=O)=O)cc5)n4C)c(C)n3)cc1F)C2 [Example 75, 6-(3-fluoro-4-(8-(2-methoxyethyl)-3,8-diazabicyclo[3.2.1]octan-3-yl)phenyl)-1,4-dimethyl-2-(4-(methylsulfonyl)phenyl)-1H-pyrrolo[3,2-c]pyridine] | 75 | 9600 |
| Cc1nc(-c2ccc(N3CC4CCC(C3)N4CCCO)cc2)cc2c1cc(-c1ccc(S(C)(=O)=O)cc1)n2C [Example 76, 3-(3-(4-(1,4-dimethyl-2-(4-(methylsulfonyl)phenyl)-1H-pyrrolo[3,2-c]pyridin-6-yl)phenyl)-3,8-diazabicyclo[3.2.1]octan-8-yl)propan-1-ol] | 53 | 18300 |
| Cc1nc(-c2ccc(N3CC4CCC(C3)N4CCCO)c(F)c2)cc2c1cc(-c1ccc(S(C)(=O)=O)cc1)n2C [Example 77, 3-(3-(4-(1,4-dimethyl-2-(4-(methylsulfonyl)phenyl)-1H-pyrrolo[3,2-c]pyridin-6-yl)-2-fluorophenyl)-3,8-diazabicyclo[3.2.1]octan-8-yl)propan-1-ol] | 126 | 19200 |
| COCCN1C2CCC1CN(c1cc(F)c(-c3cc4c(cc(-c5ccc(S(C)(=O)=O)cc5)n4C)c(C)n3)cc1F)C2 [Example 78, 6-(2,5-difluoro-4-(8-(2-methoxyethyl)-3,8-diazabicyclo[3.2.1]octan-3-yl)phenyl)-1,4-dimethyl-2-(4-(methylsulfonyl)phenyl)-1H-pyrrolo[3,2-c]pyridine] | 147 | 9400 |
| Cc1nc(-c2cc(F)c(N3CC4CCC(C3)N4CCCO)cc2F)cc2c1cc(-c1ccc(S(C)(=O)=O)cc1)n2C [Example 79, 3-(3-(4-(1,4-dimethyl-2-(4-(methylsulfonyl)phenyl)-1H-pyrrolo[3,2-c]pyridin-6-yl)-2,5-difluorophenyl)-3,8-diazabicyclo[3.2.1]octan-8-yl) propan-1-ol] | 35 | 9500 |
| Cc1nc(-c2ccc(N3CCN(CC(C)C)CC3)c(F)c2F)cc2c1cc(-c1ccc(S(C)(=O)=O)cc1)n2C [Example 82, 6-(2,3-difluoro-4-(4-isobutylpiperazin-1-yl)phenyl)-1,4-dimethyl-2-(4-(methylsulfonyl)phenyl)-1H-pyrrolo[3,2-c]pyridine] | 329 | > 50000 |
| Cc1nc(-c2ccc(C3(O)CCN(C4CC4)CC3)cc2)cc2c1cc(-c1ccc(S(C)(=O)=O)cc1)n2C [Example 87, 1-cyclopropyl-4-(4-(1,4-dimethyl-2-(4-(methylsulfonyl)phenyl)-1H-pyrrolo[3,2-c]pyridin-6-yl)phenyl)piperidin-4-ol] | 73 | 4000 |
| Cc1nc(-c2ccc(C3(O)CCN(C(C)C)CC3)cc2)cc2c1cc(-c1ccc(S(C)(=O)=O)cc1)n2C [Example 88, 4-(4-(1,4-dimethyl-2-(4-(methylsulfonyl)phenyl)-1H-pyrrolo[3,2-c]pyridin-6-yl)phenyl)-1-isopropylpiperidin-4-ol] | 114 | 10500 |
| Cc1nc(-c2ccc(N3CCN4CCCC4C3)c(F)c2F)cc2c1cc(-c1ccc(S(C)(=O)=O)cc1)n2C (stereo not shown) [Example 99, 6-(2,3-difluoro-4-(hexahydropyrrolo[1,2-a]pyrazin-2(1H)-yl)phenyl)-1,4-dimethyl-2-(4-(methylsulfonyl)phenyl)-1H-pyrrolo[3,2-c]pyridine] | 250 | 6000 |
| Cc1nc(-c2ccc(C3(O)CC4CCC(C3)N4C(C)C)c(F)c2)cc2c1cc(-c1ccc(S(C)(=O)=O)cc1)n2C [Example 100, (1R,3r,5S)-3-(4-(1,4-dimethyl-2-(4-(methylsulfonyl)phenyl)-1H-pyrrolo[3,2-c]pyridin-6-yl)-2-fluorophenyl)-8-isopropyl-8-azabicyclo[3.2.1]octan-3-ol] | 184 | 1300 |
| CCN1C2CCC1CC(O)(c1ccc(-c3cc4c(cc(-c5ccc(S(C)(=O)=O)cc5)n4C)c(C)n3)cc1F)C2 [Example 101, (1R,3r,5S)-3-(4-(1,4-dimethyl-2-(4-(methylsulfonyl)phenyl)-1H-pyrrolo[3,2-c]pyridin-6-yl)-2-fluorophenyl)-8-ethyl-8-azabicyclo[3.2.1]octan-3-ol] | 116 | 5100 |

Continued, values first:

| IC50 (human TLR9) [nM] | IC50 (human TLR8) [nM] | SMILES |
| --- | --- | --- |
| 127 | 1000 | Cc1nc(-c2ccc(C3(O)CC4CCC(C3)N4C)c(F)c2)cc2c1cc(-c1ccc(S(C)(=O)=O)cc1)n2C [Example 102, (1R,3r,5S)-3-(4-(1,4-dimethyl-2-(4-(methylsulfonyl)phenyl)-1H-pyrrolo[3,2-c]pyridin-6-yl)-2-fluorophenyl)-8-methyl-8-azabicyclo[3.2.1]octan-3-ol] |
| 161 | 2100 | Cc1nc(-c2ccc(C3(O)CCN(C(C)(C)C)CC3)c(F)c2)cc2c1cc(-c1ccc(S(C)(=O)=O)cc1)n2C [Example 104, 1-(tert-butyl)-4-(4-(1,4-dimethyl-2-(4-(methylsulfonyl)phenyl)-1H-pyrrolo[3,2-c]pyridin-6-yl)-2-fluorophenyl)piperidin-4-ol] |
| 52 | 200 | Cc1nc(-c2ccc([C@@]3(O)CCN(C(C)C)C(C)(C)C3)c(F)c2)cc2c1cc(-c1ccc(S(C)(=O)=O)cc1)n2C [Example 105, (R)-4-(4-(1,4-dimethyl-2-(4-(methylsulfonyl)phenyl)-1H-pyrrolo[3,2-c]pyridin-6-yl)-2-fluorophenyl)-1-isopropyl-2,2-dimethylpiperidin-4-ol] |
| 47 | 700 | Cc1nc(-c2ccc([C@]3(O)CCN(C(C)C)C(C)(C)C3)c(F)c2)cc2c1cc(-c1ccc(S(C)(=O)=O)cc1)n2C [Example 106, (S)-4-(4-(1,4-dimethyl-2-(4-(methylsulfonyl)phenyl)-1H-pyrrolo[3,2-c]pyridin-6-yl)-2-fluorophenyl)-1-isopropyl-2,2-dimethylpiperidin-4-ol] |
| 18 | 2700 | Cc1nc(-c2ccc(C3(O)CCN(C(C)C)CC3)c(F)c2)cc2c1cc(-c1ccc(S(C)(=O)=O)cc1)n2C [Example 107, 4-(4-(1,4-dimethyl-2-(4-(methylsulfonyl)phenyl)-1H-pyrrolo[3,2-c]pyridin-6-yl)-2-fluorophenyl)-1-isopropylpiperidin-4-ol] |
| 204 | 1500 | Cc1nc(-c2ccc(C3(O)CCN(C(C)(C)C)CC3)cc2F)cc2c1cc(-c1ccc(S(C)(=O)=O)cc1)n2C [Example 108, 1-(tert-butyl)-4-(4-(1,4-dimethyl-2-(4-(methylsulfonyl)phenyl)-1H-pyrrolo[3,2-c]pyridin-6-yl)-3-fluorophenyl)piperidin-4-ol] |
